Assays:
[1] = system: fungal tyrosinase (EC. 1.14.18.1); assay: Measurement of the power to inhibit tyrosinase (L-Dopa oxidation to dopachrome, O.D. at 475 nm); type: biochemical; details: for Concentration which inhibits the enzymatic activity of tyrosinase by 50%: fungal tyrosinase, L-Dopa substrate, pH 6.5, 30° C.; for Times more active than hydroquinone in inhibiting tyrosinase: relative to hydroquinone
Description: The following reaction is used: colourless L-Dopa (L-3,4-dihydroxyphenylalanine, obtained from Sigma (ref. D-9628)) is oxidized to coloured dopachrome, which absorbs at 475 nm. This reaction is catalyzed by fungal tyrosinase (EC. 1.14.18.1, obtained from Sigma (ref. T-7755)). The kinetics of the reaction are recorded by the measurement of the optical density (O.D.) as a function of the time at 30° C.
The compositions of the various solutions used are as follows:
L-Dopa at 0.35% (w/v) in the pH 6.5 buffer solution.
The inhibiting molecules are dissolved directly in the pH 6.5 buffer, in 50% methanol (methanol/distilled water) or in pure methanol, depending upon their solubility.
The concentrations in weight by volume of the various solutions of inhibitors are: 0.2%, 0.1%, 0.05%, 0.025%, 0.0125%, 0.00625% and 0.00312%.
Tyrosinase at 0.010% (w/v) in the pH 6.5 buffer solution.
The amounts of these various solutions used during the tests are presented in Tables 1 and 2 for each reaction studied:
The action of tyrosinase is evaluated by the initial rate of the reaction measured on the O.D. recording.
The initial rates of reactions without inhibitors (concentration 0) and the rates at the various concentrations tested are plotted on a curve.
The inhibiting power of a molecule is defined as the concentration which reduces the action of tyrosinase by 50%.

cultured melanocytes = assay: Power to inhibit the synthesis of melanin with regard to cultured melanocytes; type: cell-based; details: for Effect on the synthesis of melanin (in words) / Inhibition of the synthesis of melanin: concentration of 0.00035%; for Inhibition of the synthesis of melanin: 8 independent tests
Description: These tests were carried out on different batches of cells during experiments which were independent and repeated (8 times).
The results are expressed in mg/ml of melanin in so far as the cells are inoculated at the same concentration.

[2] = system: pigmented skin of guinea pigs; assay: Test of the depigmenting power on pigmented guinea pigs; details: glycerol-based cream comprising 5% of product, twice daily
Description: Guinea pigs with a pigmented skin, shaved beforehand, received twice daily, 5 days out of 7, during one to two months of treatment, applications of a glycerol-based cream comprising 5% of kojic acid (ref. Aldrich 22,046-9) or 5% of hydroquinone (ref. Aldrich H 1,790-2) or 5% of benzoyl isothiocyanate (ref. Aldrich 30,818-8) or 5% of synthetic sulforaphane prepared according to Example 3. These applications were carried out on circular regions with a diameter of 2 cm pinpointed by indelible marking using yellow ink.

[3] = system: Type-6 pigmented epidermis (reconstituted human skin); assay: Power to inhibit the synthesis of melanin with regard to pigmented human skin reconstituted in culture; type: cell-based; details: daily for 5 days, then two further days
Description: Type-6 pigmented epidermis (corresponding to black skin), in a proportion of three samples per test, were treated daily for 5 days with a control cream with the following composition (as % by weight): [table] with kojic acid at a concentration of 3.5×10^−5 (w/w) and with sulforaphane at a concentration of 3.5×10^−6 (w/w) in the same cream acting as excipient. At the end of the treatment, the culture skin is left for a further two days and the melanin is extracted from the treated skin and from the control skin with a mixture of solvents and sodium hydroxide (Solvable® from Packard Bioscience B.V.) and the melanin extracted is quantified by colorimetry according to a method described previously (Chemical Characterization of Hair Melanins in Various Coat-Color Mutants of Mice; Hiroyuki Ozeki et al., J. Invest.

| SMILES | Concentration which inhibits the enzymatic activity of tyrosinase by 50% [1] | Effect on the synthesis of melanin (in words) (cultured melanocytes) | Inhibition of the synthesis of melanin (cultured melanocytes) | further results |
| --- | --- | --- | --- | --- |
| CC(=O)N=C=S [Acetyl isothiocyanate] | 0.055 % (weight/volume) | – | – | – |
| O=C(N=C=S)c1ccccc1 [Benzoyl isothiocyanate] | 0.0063 % (weight/volume) | no longer have an effect | 9.5% | Times more active than hydroquinone in inhibiting tyrosinase [1]: approximately 24 times; Desquamation of the skin at the application spots ([2]; 5 days out of 7): desquamation of the skin |
| S=C=NCc1ccccc1 [Benzyl isothiocyanate] | 0.0980 % (weight/volume) | – | – | – |
| N#CSCc1ccccc1 [Benzyl thiocyanate] | 0.25 % (weight/volume) | – | – | – |
| S=C=NC1CCCCC1 [Cyclohexyl isothiocyanate] | 0.104 % (weight/volume) | – | – | – |
| Oc1ccc(O)cc1 [Hydroquinone] | 0.154 % (weight/volume) | inhibit the synthesis of melanin | 42% | Cytotoxicity (cultured melanocytes; cultured melanocytes): excessively high cytotoxicity |
| O=c1cc(CO)occ1O [Kojic acid, kojic acid, reference compound] | – | no longer have an effect | 1% | Inhibition of the synthesis of melanin (melatonin [sic]) ([3]; 3.5×10^−5 (w/w) in cream): 8%; Whitening of the skin ([2]; 5 days out of 7, after treating for 4 weeks): no effect |
| N#C[S-].[K+] [Potassium thiocyanate] | 0.20 % (weight/volume) | – | – | – |
| C[S+]([O-])CCCCN=C=S (centres unmarked) [Sulforaphane] | 0.103 % (weight/volume) | inhibit the synthesis of melanin | 26.22% | Times more active than hydroquinone in inhibiting tyrosinase [1]: approximately 1.5 times; Inhibition of the synthesis of melanin (melatonin [sic]) ([3]; 3.5×10^−6 (w/w) in cream): 30% |

From patent US20040077715A1, “Use of an isothiocyanate, a thiocyanate or a mixture thereof as depigmenting agent” (priority 2001, published 2004)
